pKi: −log10 of the molar value.
What was measured:
[1] = target: Melanocyte-stimulating hormone receptor (Mus musculus, UniProt Q01727); test: Displacement of [125I]NDP-MSH from MC1 receptor in mouse B16 cells; format: cell-based
[2] = target: Melanocortin receptor 3 (Homo sapiens, UniProt P41968); test: Displacement of [125I]NDP-MSH from human recombinant MC3 receptor expressed in Sf9 cells
[3] = target: Melanocortin receptor 4 (Homo sapiens, UniProt P32245); test: Displacement of [125I]NDP-MSH from human recombinant MC4 receptor expressed in Sf9 cells
Sequence of Melanocortin receptor 4 (P32245 whole entry): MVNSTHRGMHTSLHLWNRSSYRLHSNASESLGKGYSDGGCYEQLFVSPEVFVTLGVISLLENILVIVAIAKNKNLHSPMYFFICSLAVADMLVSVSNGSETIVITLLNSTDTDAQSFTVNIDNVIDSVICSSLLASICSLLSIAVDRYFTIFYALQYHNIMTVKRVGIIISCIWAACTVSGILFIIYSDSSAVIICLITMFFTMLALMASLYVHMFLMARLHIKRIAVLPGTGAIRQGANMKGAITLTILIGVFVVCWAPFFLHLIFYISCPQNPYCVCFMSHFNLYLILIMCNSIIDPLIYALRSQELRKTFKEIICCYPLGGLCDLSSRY

[4] = target: Melanocortin receptor 5 (Homo sapiens, UniProt P33032); test: Displacement of [125I]NDP-MSH from human recombinant MC5 receptor expressed in Sf9 cells
Sequence of Melanocortin receptor 5 (P33032 whole entry): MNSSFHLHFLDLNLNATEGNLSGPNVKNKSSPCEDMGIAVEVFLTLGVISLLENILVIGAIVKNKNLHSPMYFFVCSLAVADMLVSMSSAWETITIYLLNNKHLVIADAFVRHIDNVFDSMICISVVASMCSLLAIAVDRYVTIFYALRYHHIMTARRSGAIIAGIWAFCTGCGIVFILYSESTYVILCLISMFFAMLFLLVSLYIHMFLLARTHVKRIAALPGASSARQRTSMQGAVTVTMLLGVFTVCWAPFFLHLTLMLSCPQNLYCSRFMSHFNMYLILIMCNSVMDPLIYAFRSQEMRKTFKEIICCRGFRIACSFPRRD

Sequence of Melanocortin receptor 3 (P41968 whole entry): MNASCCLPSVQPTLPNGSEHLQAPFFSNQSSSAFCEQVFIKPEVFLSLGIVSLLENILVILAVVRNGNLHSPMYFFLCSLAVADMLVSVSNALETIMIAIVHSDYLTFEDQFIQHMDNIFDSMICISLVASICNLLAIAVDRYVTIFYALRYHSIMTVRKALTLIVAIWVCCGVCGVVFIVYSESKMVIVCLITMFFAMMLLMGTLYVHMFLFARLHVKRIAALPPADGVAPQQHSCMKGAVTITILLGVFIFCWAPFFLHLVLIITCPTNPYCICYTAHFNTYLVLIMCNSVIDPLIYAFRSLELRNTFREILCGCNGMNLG
Sequence of Melanocyte-stimulating hormone receptor (Q01727 whole entry): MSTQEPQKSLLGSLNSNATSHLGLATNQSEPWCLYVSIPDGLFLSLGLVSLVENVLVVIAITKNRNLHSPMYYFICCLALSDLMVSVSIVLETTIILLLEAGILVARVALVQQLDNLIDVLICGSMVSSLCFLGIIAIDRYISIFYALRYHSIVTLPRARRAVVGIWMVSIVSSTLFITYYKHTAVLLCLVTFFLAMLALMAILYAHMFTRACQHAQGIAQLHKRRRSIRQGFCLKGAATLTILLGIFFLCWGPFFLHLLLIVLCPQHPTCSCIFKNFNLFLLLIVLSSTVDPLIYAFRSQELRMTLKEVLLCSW

NC1CCC(CC2CCC(N(Cc3ccccn3)C(=O)CCCc3c[nH]c4ccccc34)CC2)CC1 (centres undefined) showed a pKi [1] of 5.34, a pKi [2] of 4.41 and a pKi [3] of 5.25. For the same compound, the pKi [4] was 4.31.
COc1ccc(CN(C(=O)CCCc2c(Cc3ccc(O)cc3)[nH]c3ccccc23)C2CCC(CC3CCC(N)CC3)CC2)cc1OC (centres undefined) gave a pKi [1] of 5.72, a pKi [2] of 4.64 and a pKi [3] of 5.62. For the same compound, the pKi [4] was 4.96.
With COc1ccccc1/C=C/CN(C(=O)CCCc1c[nH]c2ccccc12)C1CCC(CC2CCC(N)CC2)CC1 (stereo in doubt; form 1) the pKi [1] was 5.82, the pKi [2] was 4.77 and the pKi [3] was 5.31. The pKi [4] was 5.12.
C/C(=C\c1ccccc1)CN(CCCN)C(=O)c1c[nH]c2ccccc12 was tested, and the pKi [1] was 6.07, the pKi [2] was 4.62 and the pKi [3] was 5.13. The pKi [4] was 6.03.
For CC(Cc1ccccc1)CN(CCCCCCN)C(=O)c1cc2cc(O)ccc2[nH]1 (centres undefined), the pKi [1] was 5.54, the pKi [2] was 4.34 and the pKi [3] was 5.01. For the same compound, the pKi [4] was 4.51.
CCCCCN(Cc1ccc(N(CC)CC)cc1)C(=O)CCCc1c[nH]c2ccccc12 showed a pKi [1] of 4.14, a pKi [2] of 3.54 and a pKi [3] of 4.11. The pKi [4] was 3.39.
Work on NCCCN(C/C=C/c1ccccc1)C(=O)C(=O)c1c[nH]c2ccccc12 yielded a pKi [1] of 5.80, a pKi [2] of 4.77 and a pKi [3] of 5.30. It also gave a pKi [4] of 5.31.
For NCCCCCN(C(=O)CCCc1c[nH]c2ccccc12)C1C2CC3CC(C2)CC1C3 (centres undefined), the pKi [1] was 5.21, the pKi [2] was 4.60 and the pKi [3] was 4.85. It also gave a pKi [4] of 4.34.
With NCCCCCN(C(=O)Cc1c[nH]c2ccccc12)C1CCCCCC1 the pKi [1] was 5.22, the pKi [2] was 4.85 and the pKi [3] was 4.80. For the same compound, the pKi [4] was 4.46.
NCCCCCN(Cc1ccc2ccccc2c1)C(=O)CCc1c[nH]c2ccccc12 showed a pKi [1] of 4.85, a pKi [2] of 4.24 and a pKi [3] of 4.21. The pKi [4] was 5.14.
Work on NC1CCC(CC2CCC(N(Cc3c(Cl)cccc3Cl)C(=O)CCCc3c(Cc4ccc(O)cc4)[nH]c4ccccc34)CC2)CC1 (centres undefined) yielded a pKi [1] of 5.80, a pKi [2] of 4.57 and a pKi [3] of 5.28. It also gave a pKi [4] of 4.66.
NCCCN(Cc1ccc2ccccc2c1)C(=O)CCCc1c[nH]c2ccccc12 showed a pKi [1] of 5.43, a pKi [2] of 4.59 and a pKi [3] of 4.72. The pKi [4] was 4.64.
Work on NCC1CCCC(CN(C/C(Cl)=C/c2ccccc2)C(=O)CCCc2c[nH]c3ccccc23)C1 (centres undefined) yielded a pKi [1] of 5.82, a pKi [2] of 4.60 and a pKi [3] of 5.43. The pKi [4] was 5.04.
CC1CC(CC2CCC(N(Cc3ccccc3)C(=O)CCCc3c[nH]c4ccccc34)C(C)C2)CCC1N (stereo in doubt; form 5) showed a pKi [1] of 5.89, a pKi [2] of 4.51 and a pKi [3] of 5.68. It also gave a pKi [4] of 5.30.
NC1CCC(CC2CCC(N(Cc3c(F)cccc3F)C(=O)CCCc3c(Cc4ccc(O)cc4)[nH]c4ccccc34)CC2)CC1 (centres undefined) showed a pKi [1] of 5.68, a pKi [2] of 4.19 and a pKi [3] of 5.52. The pKi [4] was 4.68.
NCCCN(C/C=C/c1ccccc1)C(=O)CCc1c[nH]c2ccccc12 was tested, and the pKi [1] was 4.68, the pKi [2] was 4.19 and the pKi [3] was 4.09. It also gave a pKi [4] of 4.96.
For NC(N)=NCCCN(Cc1ccc2ccccc2c1)C(=O)CCCc1c[nH]c2ccccc12, the pKi [1] was 5.72, the pKi [2] was 5.12 and the pKi [3] was 5.22. For the same compound, the pKi [4] was 5.21.
NC1CCC(CC2CCC(N(Cc3ccccc3Br)C(=O)CCCc3c[nH]c4ccccc34)CC2)CC1 (centres undefined) was tested, and the pKi [1] was 5.44, the pKi [2] was 4.10 and the pKi [3] was 5.36. For the same compound, the pKi [4] was 5.04.
NC1CCCC(N(Cc2ccccc2)C(=O)CCCc2c[nH]c3ccccc23)C1 (centres undefined) showed a pKi [1] of 5.48, a pKi [2] of 4.52 and a pKi [3] of 5.24. For the same compound, the pKi [4] was 4.74.
Work on NCCCCCN(Cc1ccccc1)C(=O)[C@H](N)Cc1c[nH]c2ccccc12 yielded a pKi [1] of 4.49, a pKi [2] of 3.97 and a pKi [3] of 4.06. It also gave a pKi [4] of 3.80.
For NCCCCCN(C/C=C\c1ccccc1)C(=O)CCc1c(Cc2ccc(O)cc2)[nH]c2ccccc12, the pKi [1] was 5.48, the pKi [2] was 4.57 and the pKi [3] was 5.15. It also gave a pKi [4] of 5.17.
Compound NCc1ccc(CN(Cc2ccc3ccccc3c2)C(=O)CCCc2c[nH]c3ccccc23)cc1 has a pKi [1] of 5.40, a pKi [2] of 4.40 and a pKi [3] of 4.96. For the same compound, the pKi [4] was 4.77.
With NCCCCN(Cc1ccccc1)C(=O)CCCc1c(Cc2ccc(O)cc2)[nH]c2ccccc12 the pKi [1] was 5.11, the pKi [2] was 4.80 and the pKi [3] was 5.21. For the same compound, the pKi [4] was 5.34.
Compound C/C(=C/c1ccccc1)CN(CCCCCN)C(=O)CCCc1c[nH]c2ccccc12 has a pKi [1] of 5.46, a pKi [2] of 4.66 and a pKi [3] of 5.33. It also gave a pKi [4] of 5.06.
COc1ccccc1/C=C/CN(C(=O)CCCc1c[nH]c2ccccc12)C1CCC(CC2CCC(N)CC2)CC1 (stereo in doubt; form 2) was tested, and the pKi [1] was 5.80, the pKi [2] was 4.51 and the pKi [3] was 5.39. The pKi [4] was 5.30.
In the case of NCCCCCCN(Cc1ccccc1)C(=O)CCCc1c[nH]c2ccccc12, the pKi [1] was 4.89, the pKi [2] was 4.37 and the pKi [3] was 5.47. For the same compound, the pKi [4] was 5.42.
